Data on 3 molecules can be found in paper PMC2900060, “Antioxidant and hepatoprotective effects of the methanol extract of the leaves of Satureja macrostema” (Pharmacognosy Magazine, 2010).

Experiment [1] can be described thus: Iron-chelating activity (ferrozine). The following applies: Fe2+-ferrozine, Table 2. The protocol: After 5 min incubation, the reaction was initiated by 1.0 ml of 5.0 mM ferrozine. After 10 min of equilibrium, the absorbance at 562 nm was recorded. The controls contained all reaction reagents except extracts or positive control substance. Three experiments were performed and the average result was adopted. The iron-chelating activities were calculated from the absorbance of the control (Ac) and of the sample (As) using the following equation: Inhibition(%) = Ac −As × 100 Ac

Experiment [2] is described as follows: Inhibition of nitric oxide radical (sodium nitroprusside, Griess reaction). The following applies: concentration 50 μg/ml. On the technique in general: The Griess reaction detects nitrite, a stable product of nitric oxide.
Description: Nitric oxide generated from sodium nitroprusside in aqueous solution at physiological pH interacts with oxygen to produce nitrite ions, which were measured by the Griess reaction.[1213] The reaction mixture (3 ml) containing sodium nitroprusside (10 Mm) in phosphate buffered saline (PES) and SM and the reference compound in different concentrations (5, 10, 25, 50 and 100 μg) were incubated at 25°C for 150 min. In each 30 min, 0.5 ml of the incubated sample was removed and 0.5 ml of the Griess reagent (1% sulfanilamide, 0.1% naphthyl ethylene diamine dihydrochloride in 2% H3PO4) was added. The absorbance of the chromophore formed was measured at 546 nm. All the tests were performed in triplicate and the results were averaged. BHT was used as the reference compound. All the tests were performed in triplicate and the results were averaged. The percentage decrease in absorbance was calculated.[10] Quercetine was used as the standard.
Experiment [3] can be described thus: Inhibition of superoxide anion radical (NBT/NADH/PMS). The following applies: concentration 50 μg/ml. The protocol:
Measurement of superoxide anion scavenging activity of SM was performed based on the method described by […][11] and slightly modified. About 1 ml of nitroblue tetrazolium (NBT) solution containing 156 μM NBT which is dissolved in 1.0 ml of phosphate buffer (100 mM, pH 7.4), 1 ml of NADH solution containing 468 μM of NADH which is dissolved in 1 ml of phosphate buffer (100 mM, pH 7.4) and 0.1 ml of various concentrations of SM and the reference compounds (5, 10, 25, 50 and 100 μg) were mixed and the reaction started by adding l00 μl of phenazine methosulphate (PMS) solution containing 60 μM of PMS l00 μl of phosphate buffer (100 mM, pH 7.4). The reaction mixture was incubated at 25°C for 5 min and the absorbance at 560 nm was measured against the control samples. All the tests were performed in triplicate and the results were averaged. The percentage decrease in absorbance was calculated.[10] Quercetine was used as the standard.

Experiment [4] can be described thus: Inhibition of DPPH radical. The following applies: concentration 100 μg/ml (table head prints mg/ml for SM). The protocol:
The free radical scavenging activity of the extract was analyzed by the DPPH (1,1-- diphenyl-- 2--picryl hydrazyl) assay.[10] A total of 2 ml of the test extract, at concentrations ranging from 1 μg/ml to 100 μg/ml each, was mixed with 1 ml of 0.5 mM DPPH (in methanol). The absorbance at 517 nm was taken after 30 min of incubation in the dark at room temperature. The experiment was done in triplicate. The percentage antioxidant activity was calculated as follows: %Antioxidant Activity [AA] = l00 --[ { (Abssample -- Absblank) X 100 }/Abs ml of methanol plus 2.0 ml of the extract was used as the blank while 1.0 ml of the 0.3 mM DPPH solution plus 2.0 ml of methanol was used as the negative control. Ascorbic acid was used as the reference standard.
(In general: Loss of DPPH colour is used to gauge radical scavenging.)

Converted amounts (≈) assume the structure as drawn.

As for `Cc1cc(C(C)(C)C)c(O)c(C(C)(C)C)c1` [BHT], the “IC50 Ion-chelating” value in experiment [1] is 46.6 mg/mL (≈ 211 mM).

Take `O=c1c(O)c(-c2ccc(O)c(O)c2)oc2cc(O)cc(O)c12` [Quercetin]: the Nitric oxide scavenging in experiment [2] is recorded as 93.8 ± 0.98 %. Also, the Superoxide anion scavenging in experiment [3] was determined as 90.87 ± 0.43 %.

In the case of `O=C1O[C@H]([C@@H](O)CO)C(O)=C1O` [Ascorbic acid], the “IC50 Ion-chelating” value in experiment [1] came to 49.3 mg/mL (≈ 280 mM). The figures for the DPPH scavenging in experiment [4] and in experiment [4] (listed as ascorbic acid) were 97 ± 0.52 % and 97%, respectively.
